ChEMBL document CHEMBL1201862, “PubChem BioAssay data set” (2004)
Structures can show the parent of a compound that is named as a salt.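 Compound exposure: 48 hours, 5 concentrations, 96-well plates. GI50 is the concentration that inhibits growth by half.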 Calls of active or inactive are those of the source. No stated cut-off is given here; in the data, active = GI50 up to about 1.1 µM and inactive = higher.

Columns and labels:
Test in all cases: inhibition of tumour cell growth, NCI panel, 48 h
CCRF-CEM = system: CCRF-CEM
HT-29 = system: HT-29
IGROV-1 = system: IGROV-1
M14 = system: M14
MDA-N = system: MDA-N
NCI-H522 = system: NCI-H522
OVCAR-8 = system: OVCAR-8
SF-268 = system: SF-268
SF-295 = system: SF-295
SF-539 = system: SF-539
SK-MEL-28 = system: SK-MEL-28
SNB-75 = system: SNB-75
SR = system: SR
T47D = system: T47D
TK-10 = system: TK-10
UACC-62 = system: UACC-62
UO-31 = system: UO-31
MDA-MB-231 = system: MDA-MB-231
SK-OV-3 = system: SK-OV-3
U-251 = system: U-251

Structure (SMILES) | GI50 (CCRF-CEM) | GI50 (HT-29) | GI50 (IGROV-1) | GI50 (M14) | GI50 (MDA-N) | GI50 (NCI-H522) | GI50 (OVCAR-8) | GI50 (SF-268) | GI50 (SF-295) | GI50 (SF-539) | GI50 (SK-MEL-28) | GI50 (SNB-75) | GI50 (SR) | GI50 (T47D) | GI50 (TK-10) | GI50 (UACC-62) | GI50 (UO-31) | GI50 (MDA-MB-231) | GI50 (SK-OV-3) | GI50 (U-251)
COc1cccc(C2c3cc4c(cc3OC(N3CCCC3)C2c2ccccc2)OCO4)c1O (stereo not given) | 5.13 µM (inactive) | 7.43 µM (inactive) | 7.59 µM (inactive) | 11 µM (inactive) | 8.18 µM (inactive) | 12 µM (inactive) | 10.3 µM (inactive) | 9.02 µM (inactive) | 3.74 µM (inactive) | 6.78 µM (inactive) | 13 µM (inactive) | 5.74 µM (inactive) | 4.76 µM (inactive) | 5.97 µM (inactive) | 13.7 µM (inactive) | 14.1 µM (inactive) | 3.46 µM (inactive) |  |  | 
CCOP(=O)(OCC)/C(C#N)=C/c1cnc[nH]1 | > 100 µM (inactive) | > 100 µM (inactive) | > 100 µM (inactive) | > 100 µM (inactive) |  | > 100 µM (inactive) | > 100 µM (inactive) | > 100 µM (inactive) | > 100 µM (inactive) | > 100 µM (inactive) | > 100 µM (inactive) | > 100 µM (inactive) | > 100 µM (inactive) |  | > 100 µM (inactive) | > 100 µM (inactive) | > 100 µM (inactive) | > 100 µM (inactive) | > 100 µM (inactive) | > 100 µM (inactive)
O=C1c2ccccc2-n2c1nc1ccc([N+](=O)[O-])cc1c2=O | 34.8 µM (inactive) | > 10 µM (inactive) | 53.7 µM (inactive) | 91.8 µM (inactive) |  | 82.6 µM (inactive) | 21.3 µM (inactive) | 26.4 µM (inactive) | 24.1 µM (inactive) | > 100 µM (inactive) | 55.1 µM (inactive) |  | 28.8 µM (inactive) | 25.9 µM (inactive) | > 100 µM (inactive) | 44.2 µM (inactive) | 42.9 µM (inactive) | 45.7 µM (inactive) | > 100 µM (inactive) | > 100 µM (inactive)
CC(=O)c1sc2c(c1OC(=O)c1ccc(Cl)cc1)c(=O)n(-c1ccccc1)c(=S)n2-c1ccccc1 | 1.06 µM (active) | 0.946 µM (active) | 8.89 µM (inactive) | 1.18 µM (inactive) |  | 1.53 µM (inactive) | 3.48 µM (inactive) | 4.56 µM (inactive) | 0.953 µM (active) | 1.87 µM (inactive) | 2.79 µM (inactive) | 2.99 µM (inactive) | 3.88 µM (inactive) | 12.2 µM (inactive) | 22.4 µM (inactive) | 15.7 µM (inactive) | 3.06 µM (inactive) | 3.91 µM (inactive) | 1.21 µM (inactive) | 2.82 µM (inactive)
COc1ccc(C2OC(c3ccncc3)=NN2C)cc1F (stereo not given) | > 100 µM (inactive) | > 100 µM (inactive) | > 100 µM (inactive) | > 100 µM (inactive) | > 100 µM (inactive) | > 100 µM (inactive) | > 100 µM (inactive) | > 100 µM (inactive) | > 100 µM (inactive) | > 100 µM (inactive) | > 100 µM (inactive) |  |  | > 100 µM (inactive) | > 100 µM (inactive) | > 100 µM (inactive) | > 100 µM (inactive) | > 100 µM (inactive) | > 100 µM (inactive) | > 100 µM (inactive)
CC[C@]12CN3CCc4c([nH]c5ccccc45)[C@@](C(=O)OC)(c4cc5c(cc4OC)N(C)[C@H]4[C@@](O)(C(=O)OC)[C@H](OC(C)=O)[C@]6(CC)C=CCN7CC[C@]54[C@@H]76)CC(C3)[C@H]1O2 (stereo not given in full) [VINLEUROSINE SULFATE] | < 0.019 µM (active) | < 0.0172 µM (active) | 0.441 µM (active) | 0.171 µM (active) | < 0.01 µM (active) | < 0.01 µM (active) | 0.449 µM (active) | 1.02 µM (active) | 0.0401 µM (active) | 0.039 µM (active) | 0.254 µM (active) | 0.0716 µM (active) |  |  | > 47.5 µM (inactive) | 0.0368 µM (active) | 5.57 µM (inactive) | 0.291 µM (active) | 0.12 µM (active) | < 0.0179 µM (active)
O=c1ccn([C@@H]2C[C@@H]2CO)c(=O)[nH]1 | > 100 µM (inactive) | > 100 µM (inactive) | > 100 µM (inactive) | > 100 µM (inactive) | > 100 µM (inactive) | > 100 µM (inactive) | > 100 µM (inactive) | > 100 µM (inactive) |  | > 100 µM (inactive) | > 100 µM (inactive) | > 100 µM (inactive) | > 100 µM (inactive) | > 100 µM (inactive) | > 100 µM (inactive) | > 100 µM (inactive) | > 100 µM (inactive) |  |  | > 100 µM (inactive)
